# Peptide text beside a SMILES is read from it.
# T1: iNOS-NOSIP protein interaction (Homo sapiens, UniProt Q9Y314)
# T1 construct: made in house; host or cells: E. coli BL21 (DE3)
# T1 sequence (Q9Y314 with tags, fused parts or gaps): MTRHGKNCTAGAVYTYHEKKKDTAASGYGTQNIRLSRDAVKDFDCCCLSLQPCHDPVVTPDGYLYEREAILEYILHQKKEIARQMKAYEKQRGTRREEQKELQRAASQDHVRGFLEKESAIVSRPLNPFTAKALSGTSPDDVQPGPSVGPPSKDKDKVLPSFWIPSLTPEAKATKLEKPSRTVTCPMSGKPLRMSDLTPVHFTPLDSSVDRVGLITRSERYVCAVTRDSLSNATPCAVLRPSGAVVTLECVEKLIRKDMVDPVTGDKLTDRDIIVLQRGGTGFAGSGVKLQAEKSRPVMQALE
# T2: rNOSIP (Homo sapiens, UniProt Q9Y314)
# T2 construct: made in house; host or cells: E. coli BL21 (DE3)
# T2 sequence (Q9Y314 with tags, fused parts or gaps): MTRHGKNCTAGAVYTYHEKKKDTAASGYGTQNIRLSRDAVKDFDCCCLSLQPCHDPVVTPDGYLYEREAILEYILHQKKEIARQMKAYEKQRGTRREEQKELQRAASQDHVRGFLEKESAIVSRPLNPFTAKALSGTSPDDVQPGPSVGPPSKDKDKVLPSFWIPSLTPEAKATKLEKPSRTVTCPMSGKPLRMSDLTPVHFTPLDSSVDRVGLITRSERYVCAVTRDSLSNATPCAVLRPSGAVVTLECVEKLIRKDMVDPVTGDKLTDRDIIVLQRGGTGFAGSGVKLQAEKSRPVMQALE
# T3: recombinant Nitric oxide synthase interacting protein (NOSIP)
# T3 chain: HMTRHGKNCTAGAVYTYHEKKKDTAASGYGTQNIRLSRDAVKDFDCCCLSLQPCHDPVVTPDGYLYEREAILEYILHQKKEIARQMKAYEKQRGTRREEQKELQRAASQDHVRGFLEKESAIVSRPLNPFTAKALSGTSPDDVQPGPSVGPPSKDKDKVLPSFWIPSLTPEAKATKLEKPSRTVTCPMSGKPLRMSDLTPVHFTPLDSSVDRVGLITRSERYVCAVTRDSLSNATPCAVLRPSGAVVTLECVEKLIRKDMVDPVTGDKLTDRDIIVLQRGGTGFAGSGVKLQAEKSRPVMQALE
# Tests used:
# [1] = molecular target: T1, iNOS-NOSIP protein interaction; test: SPR: inhibition of rNOSIP association with immobilized recombinant iNOS by iNOS peptides / small molecules; type: binding; settings: for inhibition of iNOS-NOSIP protein interaction by iNOS derived peptides: iNOS peptides 250 nM, proteins 125 nM, SPR (FIG. 2(a)); for inhibition hierarchy of iNOS-NOSIP protein interaction: SPR, rank order; for kon / Kd: analyte rNOSIP alone or + peptide/small molecule, ligand r iNOS, 20° C.; for kon: 1:1 Langmuir, read-out: Ka; for Kd: Kd/Ka; for inhibition of binding of NOSIP with iNOS ligand by small molecules: rNOSIP 250 nM, small molecules 1 uM, SPR (FIG. 4)
# Experimental: Four different iNOS peptides were synthesized commercially by China peptides and iNOS peptides were used for molecular interaction studies with immobilized recombinant iNOS purified protein. The iNOS peptides mediated inhibition of rNOSIP and riNOS protein association in Bio-Rad XPR 36 surface plasmon resonance biosensor instrument. […] 250 nM of iNOS peptides was used for inhibition assay with immobilized ligand(recombinant iNOS) in SPR analysis. Similar condition and concentration of small molecules were used for inhibition of recombinant protein association with immobilized ligand. […] The rNOSIP protein was incubated with iNOS derived peptide/small molecules for 30 minutes in ice for inhibition assay before the SPR application in our study. The molecular interaction was carried out at 20° C. and kinetic parameters were determined, after fitting the association and dissociation curves to a 1:1 (Langmuir)-binding model. An activated channel without immobilized ligand was used to evaluate nonspecific binding. The response curves were also recorded on control surfaces. Results were calculated after subtraction of the control values using the ProteOn Manager software.
# The collected sensorgram data were processed by reference subtraction using double-referencing with the in-line blank buffer. The integrated ProteOn Manager software was used to fit the data with the Langmuir model describing a 1:1 binding stoichiometry. Ka is the association rate constant, Kd is the dissociation rate constant, and KD is the equilibrium dissociation constant, defined by the Kd/Ka ratio for the analytes-ligand binding.
# The five small molecules bind with NOSIP and inhibit the association of recombinant NOSIP and recombinant iNOS. The rNOSIP protein was incubated with iNOS derived peptide or small molecules for 30 minutes in ice prior to SPR application. The molecular interaction was carried out at 20° C. and kinetic parameters were determined, after fitting the association and dissociation curves to a 1:1 (Langmuir)-binding model. An activated channel without immobilized ligand (recombinant iNOS) was used to evaluate nonspecific binding. The response curves were also recorded on control surfaces. Results were calculated after subtraction of the control values using the ProteOn Manager software.
# The collected sensorgram data were processed by reference subtraction using double-referencing with the in-line blank buffer. The integrated ProteOn
# Manager software was used to fit the data with the Langmuir model describing a 1:1 binding stoichiometry. Ka is the association rate constant, Kd is the dissociation rate constant, and KD is the equilibrium dissociation constant, defined by the Kd/Ka ratio for the analytes—ligand binding.
# rNOSIP = molecular target: T2, rNOSIP; test: Isothermal titration calorimetry (ITC) of rNOSIP with small molecules / 18 mer iNOS peptide (PP2); type: binding; settings: for Fold Change (KD): ITC KD relative to iNOS-Peptide2 = 1; for SM binding affinity with NOSIP, hierarchy: ITC, rank order
# Experimental: The 18 mer iNOS peptide (PP2) and small molecules were used for physical association of molecules in calorimetric analysis. The molecular association leads to thermodynamics changes such as Gibb's free energy change (ΔG), entropy change (ΔS), enthalpy change (ΔH) and number of binding sites (N) in interacting solution were investigated by isothermal calorimetry MICROCAL PEQ (Malvern) at 25° C. […] The experiment consisted of multiple injections and each injection contained 1.5 μl of binding solution (recombinant NOSIP solution) with 120 second spacing time between subsequent injections. Sequential titrations were carried out and the sample solution was continuously stirred at 270 rpm by the rotating paddle attached to the syringe needle. Multiple injections of NOSIP made into the sample cell containing interacting solution of peptide and small molecules. The titration curves were analyzed using the analysis software provided with the calorimeter.
# The 18 mer iNOS peptide (PP2) and five small molecules were used to analyze physical association in calorimetric analysis. The molecular association leads to thermodynamics changes such as Gibb's free energy change (ΔG), entropy change (ΔS), enthalpy change (ΔH) and number of binding sites (N) in interacting solution were investigated by isothermal calorimetry MICROCAL PEQ (Malvern) at 25° C. […] The experiment consisted of multiple injections and each injection contained 1.5 μl of binding solution with 120 second spacing time between subsequent injections. Sequential titrations were carried out and the sample solution was continuously stirred at 270 rpm by the rotating paddle attached to the syringe needle. Multiple injections of NOSIP made into the sample cell containing interacting solution of peptide and small molecules. The titration curves were analyzed using the analysis software provided with the calorimeter.
# [2] = molecular target: T3, recombinant Nitric oxide synthase …
# [3] = ITC 25° C., small molecule/peptide in cell, NOSIP in syringe
# [4] = 10 μM iNOS peptide in the chamber, 150 μM rNOSIP in syringe, 25° C. (FIG. 3)
inhibition of iNOS-NOSIP protein interaction by iNOS derived peptides [1],kon [1],Kd [1],ΔG (rNOSIP; ITC 25° C.),ΔH (rNOSIP; ITC 25° C.),−TΔS (rNOSIP; ITC 25° C.),Kd (rNOSIP; [3]),N (Sites) (rNOSIP; [3]),Fold Change (KD) (rNOSIP),Molecule,inhibition hierarchy of iNOS-NOSIP protein interaction [1],inhibition of binding of NOSIP with iNOS ligand by small molecules [1],"SM binding affinity with NOSIP, hierarchy (rNOSIP)",further results
inhibited,–,–,–,–,–,–,–,–,"PP4: iNOS derived peptide, SEQ ID No: 28 (NLQVFDARSCSTAREMFEHICRHVRYSTNNGNI; Human)",–,–,–,inhibition of iNOS-NOSIP protein interaction by iNOS derived peptides ([1]; listed as peptide-4): less efficient in inhibiting interaction between iNOS and NOSIP
–,0.822 M⁻¹ s⁻¹,588000 nM,-8.56 kcal/mol,-29.3 ± 1.12 kcal/mol,20.8 kcal/mol,535 ± 80.8 nM,0.794,0.976,"Cc1ccc(-c2nnn(CC(=O)N(Cc3ccco3)C(C(=O)NC(C)(C)C)c3ccc(O)cc3)n2)cc1 (stereo not shown) [MCULE-8469877005, N-tert-butyl-2-{N-[(furan-2-yl)methyl]-2-[5-(4-methylphenyl)-2H-1,2,3,4-tetrazol-2-yl]acetamido}-2-(4-hydroxyphenyl) acetamide]",CC4>CC11>CC6>CC5>CC13>iNOS Peptide 2,inhibit the binding of NOSIP with iNOS ligand,CC4>CC11>CC6>CC5>CC13>Peptide 2 (iNOS),–
–,0.835 M⁻¹ s⁻¹,543000 nM,-8.55 kcal/mol,-28.5 ± 0.694 kcal/mol,20.0 kcal/mol,542 ± 54.9 nM,0.864,0.989,"CCCCN=c1scc(-c2ccc(O)c(C(N)=O)c2)n1N=Cc1cc(Br)c(O)c(OC)c1 [MCULE-8395438746, 5-(3-{[(3-bromo-4-hydroxy-5-methoxyphenyl)methylidene]amino}-2-(butylimino)-2,3-dihydro-1,3-thiazol-4-yl)-2-hydroxybenzamide]",CC4>CC11>CC6>CC5>CC13>iNOS Peptide 2,inhibit the binding of NOSIP with iNOS ligand,CC4>CC11>CC6>CC5>CC13>Peptide 2 (iNOS),–
inhibited,–,–,–,–,–,–,–,–,"PP1: iNOS derived peptide, SEQ ID No: 25 (TGDELIFATKQAWR; Human)",–,–,–,inhibition of iNOS-NOSIP protein interaction by iNOS derived peptides ([1]; listed as Peptide-1): less efficient in inhibiting interaction between iNOS and NOSIP

# The next lines start with the molecule.
Molecule,inhibition of iNOS-NOSIP protein interaction by iNOS derived peptides [1],kon [1],Kd [1],ΔG (rNOSIP; ITC 25° C.),ΔH (rNOSIP; ITC 25° C.),−TΔS (rNOSIP; ITC 25° C.),Kd (rNOSIP; [3]),N (Sites) (rNOSIP; [3]),Fold Change (KD) (rNOSIP),inhibition hierarchy of iNOS-NOSIP protein interaction [1],inhibition of binding of NOSIP with iNOS ligand by small molecules [1],"SM binding affinity with NOSIP, hierarchy (rNOSIP)",further results
"PP3: iNOS derived peptide, SEQ ID No: 27 (GWKPKYGRFDVVPLVLQANGRDPELFEIPPDLVL; Human)",inhibited,–,–,–,–,–,–,–,–,–,–,–,inhibition of iNOS-NOSIP protein interaction by iNOS derived peptides ([1]; listed as Peptide3): less efficient in inhibiting interaction between iNOS and NOSIP
CC[C@H](C)[C@H](NC(=O)[C@H](CCCCN)NC(=O)[C@H](C)NC(=O)[C@H](CCC(=O)O)NC(=O)[C@H](CCCCN)NC(=O)[C@H](Cc1ccccc1)NC(=O)[C@H](CO)NC(=O)CNC(=O)[C@H](Cc1ccc(O)cc1)NC(=O)[C@H](Cc1ccc(O)cc1)NC(=O)[C@H](CCC(N)=O)NC(=O)[C@@H](N)CC(N)=O)C(=O)N[C@@H](CCC(=O)O)C(=O)N[C@@H](CCC(=O)O)C(=O)N[C@@H](Cc1c[nH]cn1)C(=O)N[C@@H](CC(C)C)C(=O)N[C@@H](C)C(=O)N[C@@H](CCCNC(=N)N)C(=O)O [iNOS-Peptide2] (H-NQYYGSFKEAKIEEHLAR-OH; N-terminus and C-terminus assumed),–,536 M⁻¹ s⁻¹,–,-8.54 kcal/mol,-8.44 ± 0.271 kcal/mol,-0.10 kcal/mol,–,1.09,1,CC4>CC11>CC6>CC5>CC13>iNOS Peptide 2,–,CC4>CC11>CC6>CC5>CC13>Peptide 2 (iNOS),Fold Change (KD) ([1]; SPR KD relative to rNOSIP + iNOS peptide2 = 1): 1; inhibition of iNOS-NOSIP protein interaction by iNOS derived peptides ([1]; listed as PP2): inhibited; inhibition of iNOS-NOSIP protein interaction by iNOS derived peptides ([1]; listed as PP-2): block significantly interaction between recombinant iNOS and NOSIP; Kd (rNOSIP; [4]): 493 ± 63.2 nM; ΔG (rNOSIP; [4]): -8.61 kcal/mol; ΔH (rNOSIP; [4]): -9.07 ± 0.251 kcal/mol; −TΔS (rNOSIP; [4]): 0.459 kcal/mol
"NS(=O)(=O)c1ccc(CCNC(=O)CCCn2c(SCC(=O)c3ccc(Cl)c(Cl)c3)nc3ccsc3c2=O)cc1 [MCULE-3765839647, 4-(2-{[2-(3,4-dichlorophenyl)-2-oxoethyl]sulfanyl}-4-oxo-3H,4H-thieno[3,2-d]pyrimidin-3-yl)-N-[2-(4-sulfamoylphenyl)ethyl]butanamide]",–,0.807 M⁻¹ s⁻¹,704000 nM,-7.5 kcal/mol,-27.3 ± 1.11 kcal/mol,19.8 kcal/mol,524 ± 64.9 nM,0.989,0.956,CC4>CC11>CC6>CC5>CC13>iNOS Peptide 2,inhibit the binding of NOSIP with iNOS ligand,CC4>CC11>CC6>CC5>CC13>Peptide 2 (iNOS),–
recombinant human iNOS oxygenase domain (protein) HMPRHVRIKNWGSGMTFQDTLHHKAKGILTCRSKSCLGSIMTPKSLTRGPRDKPTPPDELLPQAIEFVNQYYGSFKEAKIEEHLARVEAVTKEIETTGTYQLTGDELIFATKQAWRNAPRCIGRIQWSNLQVFDARSCSTAREMFEHICRHVRYSTNNGNIRSAITVFPQRSDGKHDFRVWNAQLIRYAGYQMPDGSIRGDPANVEFTQLCIDLGWKPKYGRFDVVPLVLQANGRDPELFEIPPDLVLEVAMEHPKYEWFRELELKWYALPAVANMLLEVGGLEFPGCPFNGWYMGTEIGVRDFCDVQRYNILEEVGRRMGLETHKLASLWKDQAVVEINIAVLHSFQKQNVTIMDHHSAAESFMKYMQNEYRSRGGCPADWIWLVPPMSGSITPVFHQEMLNYVLSPFYYYQVEAWKTHVWQDEKLE,–,–,–,–,–,–,–,–,–,–,–,–,"iNOS enzyme activity (nitrite quantified by Griess reaction, L-Arginine substrate) [2]: recombinant NOSIP inhibits enzyme activity of iNOS"
